Test results as given in ChEMBL document CHEMBL3045601, “Synthesis of new quinoline-2-pyrazoline-based thiazolinone derivatives as potential antimicrobial agents” (2013).
Values after ≈ are worked out from the molar mass of the structure shown.

How the values were obtained:
Type in all cases: functional
Aspergillus clavatus = assay: Antifungal activity against Aspergillus clavatus MTCC 1323 assessed as growth inhibition after 48 hr by NCCLS broth microdilution method; conditions: MTCC 1323, 48 h
Aspergillus niger = assay: Antifungal activity against Aspergillus niger MTCC 282 assessed as growth inhibition after 48 hr by NCCLS broth microdilution method; conditions: MTCC 282, 48 h
Candida albicans = assay: Antifungal activity against Candida albicans MTCC 227 assessed as growth inhibition after 48 hr by NCCLS broth microdilution method; conditions: MTCC 227, 48 h
Pseudomonas aeruginosa = assay: Antibacterial activity against Pseudomonas aeruginosa MTCC 1688 assessed as growth inhibition after 24 hr by NCCLS broth microdilution method; conditions: MTCC 1688, 24 h
Escherichia coli = assay: Antibacterial activity against Escherichia coli MTCC 443 assessed as growth inhibition after 24 hr by NCCLS broth microdilution method; conditions: MTCC 443, 24 h
Staphylococcus aureus = assay: Antibacterial activity against Staphylococcus aureus MTCC 96 assessed as growth inhibition after 24 hr by NCCLS broth microdilution method; conditions: MTCC 96, 24 h
Streptococcus pyogenes = assay: Antibacterial activity against Streptococcus pyogenes MTCC 442 assessed as growth inhibition after 24 hr by NCCLS broth microdilution method; conditions: MTCC 442, 24 h

MIC (Aspergillus clavatus) | MIC (Aspergillus niger) | MIC (Candida albicans) | MIC (Pseudomonas aeruginosa) | MIC (Escherichia coli) | MIC (Staphylococcus aureus) | MIC (Streptococcus pyogenes) | SMILES
100 µg/mL (≈ 228 µM) | 250 µg/mL (≈ 570 µM) | 250 µg/mL (≈ 570 µM) | 50 µg/mL (≈ 114 µM) | 50 µg/mL (≈ 114 µM) | 100 µg/mL (≈ 228 µM) | 25 µg/mL (≈ 57 µM) | Cc1ccc2nc(Cl)c(C3CC(c4ccc(F)cc4)=NN3C3=NC(=O)CS3)cc2c1 (stereo unspecified)
12.5 µg/mL (≈ 26.8 µM) | 50 µg/mL (≈ 107 µM) | 250 µg/mL (≈ 537 µM) | 12.5 µg/mL (≈ 26.8 µM) | 25 µg/mL (≈ 53.7 µM) | 250 µg/mL (≈ 537 µM) | 25 µg/mL (≈ 53.7 µM) | Cc1ccc2nc(Cl)c(C3CC(c4ccccc4[N+](=O)[O-])=NN3C3=NC(=O)CS3)cc2c1 (stereo unspecified)
50 µg/mL (≈ 107 µM) | 100 µg/mL (≈ 215 µM) | 500 µg/mL (≈ 1070 µM) | 500 µg/mL (≈ 1070 µM) | 250 µg/mL (≈ 537 µM) | 500 µg/mL (≈ 1070 µM) | 500 µg/mL (≈ 1070 µM) | Cc1ccc2nc(Cl)c(C3CC(c4cccc([N+](=O)[O-])c4)=NN3C3=NC(=O)CS3)cc2c1 (stereo unspecified)
100 µg/mL (≈ 215 µM) | 25 µg/mL (≈ 53.7 µM) | 500 µg/mL (≈ 1070 µM) | 250 µg/mL (≈ 537 µM) | 50 µg/mL (≈ 107 µM) | 100 µg/mL (≈ 215 µM) | 50 µg/mL (≈ 107 µM) | Cc1ccc2nc(Cl)c(C3CC(c4ccc([N+](=O)[O-])cc4)=NN3C3=NC(=O)CS3)cc2c1 (stereo unspecified)
500 µg/mL (≈ 1190 µM) | 500 µg/mL (≈ 1190 µM) | 1000 µg/mL (≈ 2380 µM) | 250 µg/mL (≈ 594 µM) | 500 µg/mL (≈ 1190 µM) | 250 µg/mL (≈ 594 µM) | 500 µg/mL (≈ 1190 µM) | Cc1ccc2nc(Cl)c(C3CC(c4ccccc4)=NN3C3=NC(=O)CS3)cc2c1 (stereo unspecified)
1000 µg/mL (≈ 2290 µM) | 500 µg/mL (≈ 1140 µM) | 1000 µg/mL (≈ 2290 µM) | 500 µg/mL (≈ 1140 µM) | 500 µg/mL (≈ 1140 µM) | 500 µg/mL (≈ 1140 µM) | 250 µg/mL (≈ 572 µM) | Cc1ccc2nc(Cl)c(C3CC(c4ccccc4O)=NN3C3=NC(=O)CS3)cc2c1 (stereo unspecified)
1000 µg/mL (≈ 2290 µM) | 1000 µg/mL (≈ 2290 µM) | 1000 µg/mL (≈ 2290 µM) | 250 µg/mL (≈ 572 µM) | 500 µg/mL (≈ 1140 µM) | 500 µg/mL (≈ 1140 µM) | 250 µg/mL (≈ 572 µM) | Cc1ccc2nc(Cl)c(C3CC(c4ccc(O)cc4)=NN3C3=NC(=O)CS3)cc2c1 (stereo unspecified)
500 µg/mL (≈ 1110 µM) | 500 µg/mL (≈ 1110 µM) | 1000 µg/mL (≈ 2220 µM) | 500 µg/mL (≈ 1110 µM) | 500 µg/mL (≈ 1110 µM) | 500 µg/mL (≈ 1110 µM) | 500 µg/mL (≈ 1110 µM) | COc1ccc(C2=NN(C3=NC(=O)CS3)C(c3cc4cc(C)ccc4nc3Cl)C2)cc1 (stereo unspecified)
100 µg/mL (≈ 220 µM) | 50 µg/mL (≈ 110 µM) | 100 µg/mL (≈ 220 µM) | 50 µg/mL (≈ 110 µM) | 50 µg/mL (≈ 110 µM) | 250 µg/mL (≈ 549 µM) | 50 µg/mL (≈ 110 µM) | Cc1ccc2nc(Cl)c(C3CC(c4ccccc4Cl)=NN3C3=NC(=O)CS3)cc2c1 (stereo unspecified)
50 µg/mL (≈ 110 µM) | 100 µg/mL (≈ 220 µM) | 500 µg/mL (≈ 1100 µM) | 100 µg/mL (≈ 220 µM) | 250 µg/mL (≈ 549 µM) | 50 µg/mL (≈ 110 µM) | 50 µg/mL (≈ 110 µM) | Cc1ccc2nc(Cl)c(C3CC(c4ccc(Cl)cc4)=NN3C3=NC(=O)CS3)cc2c1 (stereo unspecified)
500 µg/mL (≈ 1140 µM) | 50 µg/mL (≈ 114 µM) | 100 µg/mL (≈ 228 µM) | 250 µg/mL (≈ 570 µM) | 25 µg/mL (≈ 57 µM) | 100 µg/mL (≈ 228 µM) | 500 µg/mL (≈ 1140 µM) | Cc1ccc2nc(Cl)c(C3CC(c4ccccc4F)=NN3C3=NC(=O)CS3)cc2c1 (stereo unspecified)
500 µg/mL (≈ 1140 µM) | 500 µg/mL (≈ 1140 µM) | 1000 µg/mL (≈ 2280 µM) | 100 µg/mL (≈ 228 µM) | 500 µg/mL (≈ 1140 µM) | 500 µg/mL (≈ 1140 µM) | 100 µg/mL (≈ 228 µM) | Cc1ccc2nc(Cl)c(C3CC(c4cccc(F)c4)=NN3C3=NC(=O)CS3)cc2c1 (stereo unspecified)
100 µg/mL (≈ 283 µM) | 100 µg/mL (≈ 283 µM) | 500 µg/mL (≈ 1420 µM) |  |  |  |  | COC1=CC(=O)C[C@@H](C)[C@]12Oc1c(Cl)c(OC)cc(OC)c1C2=O [GRISEOFULVIN]

SMILES | MIC (Aspergillus clavatus) | MIC (Aspergillus niger) | MIC (Candida albicans) | MIC (Pseudomonas aeruginosa) | MIC (Escherichia coli) | MIC (Staphylococcus aureus) | MIC (Streptococcus pyogenes)
CC1(C)S[C@@H]2[C@H](NC(=O)[C@H](N)c3ccccc3)C(=O)N2[C@H]1C(=O)O [AMPICILLIN] |  |  |  | 100 µg/mL (≈ 286 µM) | 100 µg/mL (≈ 286 µM) | 250 µg/mL (≈ 715 µM) | 100 µg/mL (≈ 286 µM)
